Measurements: patent publication US9695154B2, “Heteroaryl inhibitors of sumo activating enzyme” (MILLENNIUM PHARMACEUTICALS, INC., priority 2013, dated 2017)

Target: T1, recombinant human SAE enzyme (Homo sapiens, UniProt Q9UBT2)
T1 sequence (Q9UBT2 1-640): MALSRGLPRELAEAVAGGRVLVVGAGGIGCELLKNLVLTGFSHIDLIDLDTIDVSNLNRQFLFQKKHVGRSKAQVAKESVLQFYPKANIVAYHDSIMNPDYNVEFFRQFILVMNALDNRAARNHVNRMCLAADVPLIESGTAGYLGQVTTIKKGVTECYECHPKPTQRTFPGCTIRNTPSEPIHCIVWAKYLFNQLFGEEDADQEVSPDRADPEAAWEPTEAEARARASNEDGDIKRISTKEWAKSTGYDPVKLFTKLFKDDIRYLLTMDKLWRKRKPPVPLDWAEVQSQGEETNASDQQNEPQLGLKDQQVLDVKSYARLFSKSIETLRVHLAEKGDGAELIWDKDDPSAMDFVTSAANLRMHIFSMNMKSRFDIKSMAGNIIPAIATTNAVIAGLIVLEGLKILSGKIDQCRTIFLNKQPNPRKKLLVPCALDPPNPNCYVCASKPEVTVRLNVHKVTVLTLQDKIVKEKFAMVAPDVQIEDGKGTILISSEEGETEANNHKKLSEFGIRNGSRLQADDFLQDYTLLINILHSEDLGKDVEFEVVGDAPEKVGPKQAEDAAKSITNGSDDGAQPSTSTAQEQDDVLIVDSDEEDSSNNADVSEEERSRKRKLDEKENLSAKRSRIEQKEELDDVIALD
T1 sequence (Q9UBE0 1-346 partner): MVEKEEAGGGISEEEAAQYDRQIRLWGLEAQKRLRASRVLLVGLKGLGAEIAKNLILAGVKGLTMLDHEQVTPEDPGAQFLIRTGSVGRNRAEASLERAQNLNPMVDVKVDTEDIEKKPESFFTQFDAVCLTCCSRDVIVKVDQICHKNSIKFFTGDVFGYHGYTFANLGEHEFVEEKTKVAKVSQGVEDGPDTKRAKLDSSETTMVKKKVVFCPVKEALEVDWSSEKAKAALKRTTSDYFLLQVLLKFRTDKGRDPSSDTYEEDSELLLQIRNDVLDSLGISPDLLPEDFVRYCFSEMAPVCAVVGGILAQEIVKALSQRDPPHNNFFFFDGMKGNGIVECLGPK
Test: SAE HTRF Enzyme Assay
Assay type: biochemical
Details: for IC50: class symbols A-C; for inhibition at 0.111 µM: compound concentration 0.111 μM, read-out: Percent Inhibition
Outline: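 Reaction with 0.11 nM recombinant human SAE, 0.5 μM ATP, 0.01 μM Ubc9-GST, 0.125 μM Sumo-Flag in HEPES pH 7.5, MgCl2, GSH, BSA, 105 min at 24 °C. Stopped with EDTA/KF buffer carrying Eu-anti-Flag and anti-GST-APC; HTRF read after 2 h; % inhibition or IC50.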

| Structure (SMILES) | IC50 [nM] | inhibition at 0.111 µM [%] |
| --- | --- | --- |
| NS(=O)(=O)OC[C@H]1C[C@@H](Nc2ncncc2C(=O)c2cc(CO)n(Cc3cccc(Br)c3)n2)C[C@@H]1O [Compound I-90, {(1R,2S,4R)-4-[(5-{[1-(3-Bromobenzyl)-5-(hydroxymethyl)-1H-pyrazol-3-yl]carbonyl}pyrimidin-4-yl)amino]-2-hydroxycyclopentyl}methyl sulfamate] | < 10 | 98 |
| NS(=O)(=O)OC[C@H]1C[C@@H](Nc2ncncc2C(=O)c2ccn(Cc3cc(F)ccc3F)n2)[C@H](O)[C@@H]1O [Compound I-91, {(1R,2R,3S,4R)-4-[(5-{[1-(2,5-difluorobenzyl)-1H-pyrazol-3-yl]carbonyl}pyrimidin-4-yl)amino]-2,3-dihydroxycyclopentyl}methyl sulfamate] | < 10 | 98 |
| NS(=O)(=O)OC[C@H]1C[C@@H](Nc2ncncc2C(=O)c2ccn(Cc3ccc(F)c(Br)c3)n2)[C@@H](F)[C@@H]1O [Compound I-92, {(1R,2R,3R,4R)-4-[(5-{[1-(3-bromo-4-fluorobenzyl)-1H-pyrazol-3-yl]carbonyl}pyrimidin-4-yl)amino]-3-fluoro-2-hydroxycyclopentyl}methyl sulfamate] | < 10 | 99 |
| NS(=O)(=O)OC[C@H]1C[C@@H](Nc2ncncc2C(=O)c2ccn(CC3CCCCC3)n2)C[C@@H]1O [Compound I-93, {(1R,2S,4R)-4-[(5-{[1-(cyclohexylmethyl)-1H-pyrazol-3-yl]carbonyl}pyrimidin-4-yl)amino]-2-hydroxycyclocarbonyl}methyl sulfamate] | < 10 | 90 |
| NS(=O)(=O)OC[C@H]1C[C@@H](Nc2ncncc2C(=O)c2cc(C(F)(F)F)n(Cc3ccccc3)c2)[C@@H](F)[C@@H]1O [Compound I-94, {(1R,2R,3R,4R)-4-[(5-{[1-Benzyl-5-(trifluoromethyl)-1H-pyrrol-3-yl]carbonyl}pyrimidin-4-yl)amino]-3-fluoro-2-hydroxycyclopentyl}methyl sulfamate] | < 10 | 97 |
| NS(=O)(=O)OC[C@H]1C[C@@H](Nc2ncncc2C(=O)c2ccn(Cc3cccc(Cl)n3)n2)C[C@@H]1O [Compound I-95, [(1R,2S,4R)-4-{[5-({1-[(6-chloropyridin-2-yl)methyl]-1H-pyrazol-3-yl}carbonyl)pyrimidin-4-yl]amino}-2-hydroxycyclopentyl]methyl sulfamate] | < 10 | 99 |
| NS(=O)(=O)OC[C@H]1C[C@@H](Nc2ncncc2C(=O)c2ccn(CC(=O)c3cccc(Br)c3)n2)[C@H](O)[C@@H]1O [Compound I-96, [(1R,2R,3S,4R)-4-{[5-({1-[2-(3-bromophenyl)-2-oxoethyl]-1H-pyrazol-3-yl}carbonyl)pyrimidin-4-yl]amino}-2,3-dihydroxycyclopentyl]methyl sulfamate] | < 10 | 98 |
| NS(=O)(=O)OC[C@H]1C[C@@H](Nc2ccncc2C(=O)c2ccn(Cc3ccc(F)c(Cl)c3)n2)C[C@@H]1O [Compound I-97, {(1R,2S,4R)-4-[(3-{[1-(3-Chloro-4-fluorobenzyl)-1H-pyrazol-3-yl]carbonyl}pyridin-4-yl)amino]-2-hydroxycyclopentyl}methyl sulfamate] | < 10 | 96 |
| NS(=O)(=O)OC[C@H]1C[C@@H](Nc2ncncc2C(=O)c2ccn(Cc3ccccc3OC(F)(F)F)n2)[C@H](O)[C@@H]1O [Compound I-98, [(1R,2R,3S,4R)-2,3-dihydroxy-4-{[5-({1-[2-(trifluoromethoxy)benzyl]-1H-pyrazol-3-yl}carbonyl)pyrimidin-4-yl]amino}cyclopentyl]methyl sulfamate] | < 10 | 96 |
| Cc1cc(C(=O)c2cncnc2N[C@@H]2C[C@H](COS(N)(=O)=O)[C@@H](O)C2)nn1Cc1cccc(Cl)n1 [Compound I-99, [(1R,2S,4R)-4-{[5-({1-[(6-chloropyridin-2-yl)methyl]-5-methyl-1H-pyrazol-3-yl}carbonyl)pyrimidin-4-yl]amino}-2-hydroxycyclopentyl]methyl sulfamate] | < 10 | > 99 |
| NS(=O)(=O)OC[C@H]1C[C@@H](Nc2ncncc2C(=O)c2ccn(Cc3ccc(Cl)c(OC(F)(F)F)c3)n2)[C@H](O)[C@@H]1O [Compound I-100, [(1R,2R,3S,4R)-4-{[5-({1-[4-chloro-3-(trifluoromethoxy)benzyl]-1H-pyrazol-3-yl}carbonyl)pyrimidin-4-yl]amino}-2,3-dihydroxycyclopentyl]methyl sulfamate] | < 10 | 98 |
| Cc1cc(C(=O)c2cncnc2N[C@@H]2C[C@H](COS(N)(=O)=O)[C@@H](O)C2)nn1Cc1ccc(Cl)o1 [Compound I-101, [(1R,2S,4R)-4-{[5-({1-[(5-chloro-2-furyl)methyl]-5-methyl-1H-pyrazol-3-yl}carbonyl)pyrimidin-4-yl]amino}-2-hydroxycyclopentyl]methyl sulfamate] | < 10 | 100 |
| NS(=O)(=O)OC[C@H]1C[C@@H](Nc2ncncc2C(=O)c2ccn(Cc3cccc(C(F)(F)F)c3)n2)[C@@H](F)[C@@H]1O [Compound I-102, [(1R,2R,3R,4R)-3-fluoro-2-hydroxy-4-{[5-({1-[3-(trifluoromethyl)benzyl]-1H-pyrazol-3-yl}carbonyl)pyrimidin-4-yl]amino}cyclopentyl]methyl sulfamate] | < 10 | 97 |
| NS(=O)(=O)OC[C@H]1C[C@@H](Nc2ncncc2C(=O)c2ccn(Cc3ccc4ccccc4c3)n2)[C@H](O)[C@@H]1O [Compound I-103, {(1R,2R,3S,4R)-2,3-dihydroxy-4-[(5-{[1-(2-naphthylmethyl)-1H-pyrazol-3-yl]carbonyl}pyrimidin-4-yl)amino]cyclopentyl}methyl sulfamate] | < 10 | 97 |
| NS(=O)(=O)OC[C@H]1C[C@@H](Nc2ncncc2C(=O)c2ccn(Cc3cc(I)ccc3Cl)n2)C[C@@H]1O [Compound I-104, {(1R,2S,4R)-4-[(5-{[1-(2-chloro-5-iodobenzyl)-1H-pyrazol-3-yl]carbonyl}pyrimidin-4-yl)amino]-2-hydroxycyclopentyl}methyl sulfamate] | < 10 | 100 |
| NS(=O)(=O)OC[C@H]1C[C@@H](Nc2ncncc2C(=O)c2cc(Cl)n(Cc3cccc(Br)c3)c2Cl)[C@@H](F)[C@@H]1O [Compound I-105, {(1R,2R,3R,4R)-4-[(5-{[1-(3-bromobenzyl)-2,5-dichloro-1H-pyrrol-3-yl]carbonyl}pyrimidin-4-yl)amino]-3-fluoro-2-hydroxycyclopentyl}methyl sulfamate] | 100 to 1000 | 18 |
| NS(=O)(=O)OC[C@H]1C[C@@H](Nc2ncncc2C(=O)c2ccn(Cc3ccc(F)cc3)n2)[C@H](O)[C@@H]1O [Compound I-106, {(1R,2R,3S,4R)-4-[(5-{[1-(4-fluorobenzyl)-1H-pyrazol-3-yl]carbonyl}pyrimidin-4-yl)amino]-2,3-dihydroxycyclopentyl}methyl sulfamate] | < 10 | > 99 |
| C/C=C/Cn1ccc(C(=O)c2cncnc2N[C@@H]2C[C@H](COS(N)(=O)=O)[C@@H](O)C2)n1 [Compound I-107, [(1R,2S,4R)-4-{[5-({1-[(2E)-but-2-en-1-yl]-1H-pyrazol-3-yl}carbonyl)pyrimidin-4-yl]amino}-2-hydroxycyclopentyl]methyl sulfamate] | 10 to 100 | 70 |
| N#CCn1ccc(C(=O)c2cncnc2N[C@@H]2C[C@H](COS(N)(=O)=O)[C@@H](O)C2)n1 [Compound I-108, {(1R,2S,4R)-4-[(5-{[1-(cyanomethyl)-1H-pyrazol-3-yl]carbonyl}pyrimidin-4-yl)amino]-2-hydroxycyclopentyl}methyl sulfamate] | 100 to 1000 | 18 |
| CC(C)(O)c1cccc(Cn2ccc(C(=O)c3cncnc3N[C@@H]3C[C@H](COS(N)(=O)=O)[C@@H](O)C3)n2)n1 [Compound I-109, [(1R,2S,4R)-2-hydroxy-4-({5-[(1-{[6-(2-hydroxypropan-2-yl)pyridin-2-yl]methyl}-1H-pyrazol-3-yl)carbonyl]pyrimidin-4-yl}amino)cyclopentyl]methyl sulfamate] | 10 to 100 | 76 |
